Assay [1] deals with wildtype Wnt signaling cascade. In words: HEK293 TOP assay (Super TopFlash luciferase reporter, Wnt-3a stimulated). As to conditions: Homo sapiens, HEK293, 16 h, HEK293 TOP reporter cells, Wnt3a at EC50, 16 hours. The assay is classed as cell-based. Summed up: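 Compound series (50 μM down to 15 nM, 3.16-fold) diluted from DMSO 50-fold into CAFTY buffer, pH 7.4, 2 mM Ca^2+, 0.01% BSA, applied to Wnt-3a-stimulated HEK293 TopFlash and FOP reporter lines in parallel. Cells seeded 10000/well 24 h before; luciferase signal measured.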
On the technique in general: Reporter assays use an easily measured gene product as a stand-in for the process of interest.

Assay [2] deals with HEK293 cells cotransfected with the FOP control vector. In words: HEK293 FOP assay (control reporter with non-functional TCF elements). The assay is classed as cell-based. To be noted: Homo sapiens, 16 hours. Summed up: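 Compound series from 50 μM down to 15 nM, prediluted in DMSO then 50-fold into CAFTY buffer (pH 7.4, 2 mM Ca2+, 0.01% BSA), tested alongside TOP cells on a Geneticin-selected HEK293 FOP line whose TCF elements are replaced by a random sequence; recombinant human Wnt-3a applied at 2500-5 ng/ml.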

A further assay addresses T1, TNKS2 (Homo sapiens, UniProt Q9H2K2).
T1 construct: purchased BPS Bioscience, San Diego, USA 80572 (TNKS2 Histone Ribosylation Assay Kit)
T1 sequence (Q9H2K2 1-1166): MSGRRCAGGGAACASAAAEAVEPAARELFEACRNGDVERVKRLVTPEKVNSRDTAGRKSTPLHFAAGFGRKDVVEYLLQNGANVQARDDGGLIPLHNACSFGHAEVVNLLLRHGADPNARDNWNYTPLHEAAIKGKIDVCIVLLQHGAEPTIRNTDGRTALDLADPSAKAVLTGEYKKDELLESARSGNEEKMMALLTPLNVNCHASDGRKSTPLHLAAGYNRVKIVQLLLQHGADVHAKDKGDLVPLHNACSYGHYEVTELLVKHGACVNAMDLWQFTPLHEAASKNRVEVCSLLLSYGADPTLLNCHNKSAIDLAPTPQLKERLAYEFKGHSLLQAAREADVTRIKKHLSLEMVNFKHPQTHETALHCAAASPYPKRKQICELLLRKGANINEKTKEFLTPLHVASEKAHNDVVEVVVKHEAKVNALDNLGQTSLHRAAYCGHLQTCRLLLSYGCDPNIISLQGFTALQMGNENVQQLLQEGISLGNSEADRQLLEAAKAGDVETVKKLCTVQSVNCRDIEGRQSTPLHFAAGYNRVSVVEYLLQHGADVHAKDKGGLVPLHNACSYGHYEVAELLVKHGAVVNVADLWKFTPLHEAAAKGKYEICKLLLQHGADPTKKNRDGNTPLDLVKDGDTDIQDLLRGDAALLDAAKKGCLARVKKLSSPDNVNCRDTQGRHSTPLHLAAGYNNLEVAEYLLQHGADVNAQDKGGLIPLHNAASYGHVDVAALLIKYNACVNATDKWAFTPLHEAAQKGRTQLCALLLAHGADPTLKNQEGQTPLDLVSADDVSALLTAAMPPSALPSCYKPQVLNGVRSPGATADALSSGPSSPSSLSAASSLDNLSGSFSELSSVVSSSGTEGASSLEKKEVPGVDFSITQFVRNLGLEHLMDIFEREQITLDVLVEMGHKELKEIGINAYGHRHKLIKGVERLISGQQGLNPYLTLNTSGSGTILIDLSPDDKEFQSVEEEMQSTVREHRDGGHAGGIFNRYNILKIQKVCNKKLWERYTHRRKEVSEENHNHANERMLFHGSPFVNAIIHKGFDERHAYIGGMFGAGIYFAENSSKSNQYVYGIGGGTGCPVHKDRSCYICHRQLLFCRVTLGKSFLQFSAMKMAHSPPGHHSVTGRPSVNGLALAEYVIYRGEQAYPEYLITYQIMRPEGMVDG
In words: TNKS2 Assay B (auto-parsylation, [3H]-NAD+ SPA). The assay is classed as biochemical. As to conditions: 6 nM TNKS2, auto-parsylation, over night at room temperature.

For orientation: IC50 means the concentration needed to halve the response being measured. Low readings indicate greater potency in that assay, high ones weaker potency in that assay.

For `COc1ccc(Cl)c(N2CC[C@]3(CC[C@@H](NC(=O)c4cnn5cccnc45)CC3)C2=O)c1` [Example 353, N-[(trans)-2-(2-chloro-5-methoxyphenyl)-1-oxo-2-azaspiro[4.5]dec-8-yl]pyrazolo[1,5-a]pyrimidine-3-carboxamide], the values for the IC50 (in assay [1]; in assay [2]; against TNKS2) were 7.2 nM, 28000 nM and 27 nM, respectively.

With `Cc1cc(C(F)F)n2ncc(C(=O)N[C@H]3CC[C@]4(CCN(c5ccc(F)cc5Cl)C4=O)CC3)c2n1` [Example 333, N-[(cis)-2-(2-chloro-4-fluorophenyl)-1-oxo-2-azaspiro[4.5]dec-8-yl]-7-(difluoromethyl)-5-methylpyrazolo[1,5-a]pyrimidine-3-carboxamide], the figures for the IC50 (in assay [1]; in assay [2]; at TNKS2) were 55 nM, 30000 nM and 670 nM, respectively.

In the case of `O=C(N[C@H]1CC[C@@]2(CCN(c3ccc(F)cc3Cl)C2=O)CC1)c1cnn2ccc(O)nc12` [Example 234, N-[(trans)-2-(2-chloro-4-fluorophenyl)-1-oxo-2-azaspiro[4.5]dec-8-yl]-5-hydroxypyrazolo[1,5-a]pyrimidine-3-carboxamide], the IC50 is 590 nM in assay [1], ≥ 50000 nM in assay [2] and 210 nM against TNKS2.

Regarding `Cc1cc(N2CC[C@]3(CC[C@@H](NC(=O)c4[nH]cnc4C(=O)N4CCN(C)CC4)CC3)C2=O)c(Cl)cc1F` [Example 294, N-[(trans)-2-(2-chloro-4-fluoro-5-methylphenyl)-1-oxo-2-azaspiro[4.5]dec-8-yl]-4-[(4-methylpiperazin-1-yl)carbonyl]-1H-imidazole-5-carboxamide], the IC50 was 46 nM in assay [1], ≥ 50000 nM in assay [2] and 150 nM on TNKS2.

On to `COCCc1cnc2c(C(=O)N[C@H]3CC[C@@]4(CCN(c5ccc(F)cc5Cl)C4=O)CC3)cnn2c1` [Example 237, N-[(trans)-2-(2-chloro-4-fluorophenyl)-1-oxo-2-azaspiro[4.5]dec-8-yl]-6-(2-methoxyethyl)pyrazolo[1,5-a]pyrimidine-3-carboxamide], for which the IC50 in assay [1] was 0.14 nM; in assay [2], ≥ 50000 nM; against TNKS2, 8.9 nM.

In the case of `Cc1ccnc2c(C(=O)N[C@H]3CC[C@@]4(CCN(c5ccccc5Cl)C4=O)CC3)cnn12` [Example 273, N-[(trans)-2-(2-chlorophenyl)-1-oxo-2-azaspiro[4.5]dec-8-yl]-7-methylpyrazolo[1,5-a]pyrimidine-3-carboxamide], the half-maximal inhibitory concentration (IC50) in assay [1] was 1.9 nM; in assay [2], ≥ 50000 nM; against TNKS2, 11 nM.

As to `Cc1ccnc2c(C(=O)N[C@H]3CC[C@]4(CCN(c5ccc(F)cc5Cl)C4=O)CC3)cnn12` [Example 336, N-[(cis)-2-(2-chloro-4-fluorophenyl)-1-oxo-2-azaspiro[4.5]dec-8-yl]-7-methylpyrazolo[1,5-a]pyrimidine-3-carboxamide], the 50% inhibitory concentration (IC50) was 54 nM in assay [1], ≥ 50000 nM in assay [2] and 870 nM against TNKS2.

As to `Cc1cc(C)n2ncc(C(=O)N[C@H]3CC[C@@]4(CCCN(c5cc(F)c(F)cc5Cl)C4=O)CC3)c2n1` [Example 315, N-[(trans)-2-(2-chloro-4,5-difluorophenyl)-1-oxo-2-azaspiro[5.5]undec-9-yl]-5,7-dimethylpyrazolo[1,5-a]pyrimidine-3-carboxamide], the figures for the IC50 (in assay [1]; in assay [2]; at TNKS2) were 3.9 nM, ≥ 500 nM and 14 nM, respectively.

Regarding `O=C(N[C@H]1CC[C@@]2(CCN(c3ccccc3Cl)C2=O)CC1)c1[nH]cnc1C(=O)N1CC(F)C1` [Example 262, N-[(trans)-2-(2-chlorophenyl)-1-oxo-2-azaspiro[4.5]dec-8-yl]-4-[(3-fluoroazetidin-1-yl)carbonyl]-1H-imidazole-5-carboxamide], the IC50 was 0.08 nM in assay [1], ≥ 50000 nM in assay [2] and 7 nM on TNKS2.

For the origin of these results see patent publication US20180148418A1, “AMIDO-SUBSTITUTED CYCLOHEXANE DERIVATIVES” (Bayer Pharma Aktiengesellschaft, priority 2015, published 2018).
